{
  "source": "patent US20150175599A1",
  "about": "“FAAH Inhibitors” (Ironwood Pharmaceuticals, Inc., priority 2010, published 2015)",
  "key": {"[1]": {"biological_target": "T1, hERG channel (Homo sapiens, UniProt Q12809)", "T1 construct": "expressed in transfected cells; host or cells: CHO (hERG-CHO), under Geneticin selection", "T1 sequence (Q12809 whole entry)": "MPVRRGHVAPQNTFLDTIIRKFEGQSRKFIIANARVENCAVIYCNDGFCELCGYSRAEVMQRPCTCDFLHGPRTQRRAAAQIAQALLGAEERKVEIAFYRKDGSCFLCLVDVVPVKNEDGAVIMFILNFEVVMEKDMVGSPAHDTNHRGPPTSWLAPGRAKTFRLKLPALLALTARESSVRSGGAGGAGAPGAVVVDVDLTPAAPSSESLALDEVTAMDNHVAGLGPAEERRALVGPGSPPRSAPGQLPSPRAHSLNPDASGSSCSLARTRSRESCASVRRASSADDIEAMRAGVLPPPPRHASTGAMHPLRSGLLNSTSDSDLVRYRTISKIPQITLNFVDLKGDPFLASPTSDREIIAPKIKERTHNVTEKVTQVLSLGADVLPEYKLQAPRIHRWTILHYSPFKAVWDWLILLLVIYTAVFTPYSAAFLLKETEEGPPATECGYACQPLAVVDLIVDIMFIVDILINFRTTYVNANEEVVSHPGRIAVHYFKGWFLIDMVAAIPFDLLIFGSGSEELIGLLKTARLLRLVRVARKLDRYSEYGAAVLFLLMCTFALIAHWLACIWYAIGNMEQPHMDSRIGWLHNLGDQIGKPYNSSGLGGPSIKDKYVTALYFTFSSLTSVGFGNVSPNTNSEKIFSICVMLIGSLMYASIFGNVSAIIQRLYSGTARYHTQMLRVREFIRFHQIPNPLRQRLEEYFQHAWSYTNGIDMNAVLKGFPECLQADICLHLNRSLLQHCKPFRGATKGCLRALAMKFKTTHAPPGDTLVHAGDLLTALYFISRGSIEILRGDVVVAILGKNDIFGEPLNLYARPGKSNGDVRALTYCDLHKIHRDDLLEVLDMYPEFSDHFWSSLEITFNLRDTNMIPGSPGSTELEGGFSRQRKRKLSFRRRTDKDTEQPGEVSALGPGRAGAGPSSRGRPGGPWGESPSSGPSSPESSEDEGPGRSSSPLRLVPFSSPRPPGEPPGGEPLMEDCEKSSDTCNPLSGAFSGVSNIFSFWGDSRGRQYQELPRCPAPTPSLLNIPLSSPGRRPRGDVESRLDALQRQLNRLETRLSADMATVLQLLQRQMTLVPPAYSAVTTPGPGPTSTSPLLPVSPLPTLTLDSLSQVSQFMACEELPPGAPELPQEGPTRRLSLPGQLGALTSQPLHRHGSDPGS", "experiment": "hERG channel inhibition, automated patch clamp (IonWorks HT, hERG-CHO)", "assay_type": "cell-based", "conditions": "CHO cells expressing hERG, 600 s incubation; for inhibition at 600 s, 1 µM: 1 μM compound, read-out: hERG Channel Inhibition % (at 1 μM), vehicle-subtracted values; for inhibition at 600 s, 10 µM: 10 μM compound, read-out: hERG Channel Inhibition % (at 10 μM), vehicle-subtracted values", "description": "Human ether-a-gogo-related (hERG) ion channel encodes the inward rectifying voltage gated potassium channel in the heart and has a major role during the repolarization of the cardiac action potential. It is well established that blockade of this ion channel can lead to potentially lethal arrhythmias. hERG pre-clinical safety data is often used by regulatory agencies in elucidate the toxicity profile of certain compositions. The disclosed compounds of Table 1 were tested for their ability to inhibit hERG ion channels.\nMedia components include F12 Nutrient Mixture (Ham) with GlutaMAX™ (Invitrogen, Cat#31765), Fetal Bovine Serum, Certified (Invitrogen, Cat#16000-044—not heat activated), and Geneticin® Selective Antibiotic (Invitrogen, Cat#10131-027).\nOne vial of frozen cells, at 1.62×10^6 cells are thawed into a T150 flask (BD Falcon 355001) with 40 mL of pre-warmed complete media. Cells are cultured at 37° C., 5% CO2 for four hours prior to gently changing media. 99% of cells appear attached at this time point.\nThe flask is media changed at 24 hours post-thaw, the cells are imaged, media changed, and returned to the incubator. At this point, the cells appear healthy and about 25% confluent in the flask. Cells are typically passed 24-48 hours after thaw according to the following intervals and densities below. Cells are incubated at 30° C. for 48 hours prior to assay.\nUsing an automated patch clamp apparatus (IonWorks^HT), a three pulse protocol was applied by stepping from a holding potential of −80 mV to […] for 2 s, to activate hERG channels. The membrane voltage was then stepped back to −50 mV for 2 s to evoke a tail current prior to returning to the holding potential for 1 s. This sequence was repeated a further two times. This voltage protocol was applied prior to drug (Pre compound) and after 600 s in the presence of drug (Post compound).\nThe amplitude of the hERG tail current was calculated by measuring the difference between the maximum current on stepping to −50 mV of the third pulse (i.e. peak of the outward hERG tail current) and the current measured immediately prior to activation of any hERG current. This parameter was assessed before (pre tail current amplitude) and after 600 s incubation (post tail current amplitude) in drug. In order to assess the amount of block produced by test compounds, the data was first filtered using the IonWorks™ software to exclude any cells where the seal resistance was less than 50 MOhm. The remaining data was then exported to an excel compatible data file and only currents with tail currents greater than 250 pA were analyzed. The post/pre tail current amplitude ratio for the third pulse was calculated for each drug and control, and presented as percent inhibition."}, "[2]": {"biological_target": "T2, FAAH (Homo sapiens, UniProt O00519)", "T2 construct": "Reactions were initiated by adding 12.5 μg of brain microsome; tissue ABS, Inc; host or cells: human brain cerebral cortex, membrane/microsome fraction pooled from 3 donors", "T2 sequence (O00519 1-579)": "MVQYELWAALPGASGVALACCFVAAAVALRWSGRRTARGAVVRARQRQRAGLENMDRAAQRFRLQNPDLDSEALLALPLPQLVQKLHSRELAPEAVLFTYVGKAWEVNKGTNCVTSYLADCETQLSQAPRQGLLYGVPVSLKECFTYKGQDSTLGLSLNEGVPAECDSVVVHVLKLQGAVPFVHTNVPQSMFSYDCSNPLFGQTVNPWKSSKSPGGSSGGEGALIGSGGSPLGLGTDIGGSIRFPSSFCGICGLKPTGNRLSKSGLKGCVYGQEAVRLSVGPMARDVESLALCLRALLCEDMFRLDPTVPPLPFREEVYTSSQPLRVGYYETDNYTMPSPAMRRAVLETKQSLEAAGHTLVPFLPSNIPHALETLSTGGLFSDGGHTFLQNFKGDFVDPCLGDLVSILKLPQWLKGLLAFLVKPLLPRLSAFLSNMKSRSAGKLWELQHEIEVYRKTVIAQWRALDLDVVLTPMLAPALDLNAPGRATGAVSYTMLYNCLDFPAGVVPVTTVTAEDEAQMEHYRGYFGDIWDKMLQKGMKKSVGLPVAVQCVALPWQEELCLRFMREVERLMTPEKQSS", "experiment": "FAAH inhibition, human brain membrane homogenate assay", "assay_type": "biochemical", "conditions": "human brain homogenate; average activity; read-out: Human brain Extract FAAH IC50"}},
  "data": [
    {"smiles": "COc1ccc(Cn2c(C)c(C(=O)C(=O)Nc3ccnc(OC)c3)c3cc(C)ccc32)nc1", "note": "[Compound 69, 2-(1-((5-methoxypyridin-2-yl)methyl)-2,5-dimethyl-1H-indol-3-yl)-N-(2-methoxypyridin-4-yl)-2-oxoacetamide]", "values": [
      {"measurement": "inhibition at 600 s, 1 µM", "setting": "[1]", "value": "< 25", "unit": "%"},
      {"measurement": "inhibition at 600 s, 10 µM", "setting": "[1]", "value": "< 25", "unit": "%"},
      {"measurement": "IC50", "setting": "[2]", "value": "< 100", "unit": "nM"}
    ]},
    {"smiles": "COc1ccc(Cn2c(C)c(C(=O)C(=O)Nc3ccnc(OC)c3)c3cc(OC)ccc32)nc1", "note": "[Compound 43, 2-(5-methoxy-1-((5-methoxypyridin-2-yl)methyl)-2-methyl-1H-indol-3-yl)-N-(2-methoxypyridin-4-yl)-2-oxoacetamide]", "values": [
      {"measurement": "inhibition at 600 s, 1 µM", "setting": "[1]", "value": "< 25", "unit": "%"},
      {"measurement": "inhibition at 600 s, 10 µM", "setting": "[1]", "value": "< 25", "unit": "%"},
      {"measurement": "IC50", "setting": "[2]", "value": "100 to 1000", "unit": "nM"}
    ]},
    {"smiles": "COc1cc(NC(=O)C(=O)c2c(C)n(Cc3ccc(Cl)cc3)c3ccc(OC(C)=O)cc23)ccn1", "note": "[Compound 1, 1-(4-chlorobenzyl)-3-(2-(2-methoxypyridin-4-ylamino)-2-oxoacetyl)-2-methyl-1H-indol-5-yl acetate]", "values": [
      {"measurement": "inhibition at 600 s, 1 µM", "setting": "[1]", "value": "< 25", "unit": "%"},
      {"measurement": "inhibition at 600 s, 10 µM", "setting": "[1]", "value": "< 25", "unit": "%"},
      {"measurement": "IC50", "setting": "[2]", "value": "< 100", "unit": "nM"}
    ]},
    {"smiles": "COc1ccc(Cn2c(C)c(C(=O)C(=O)Nc3ccnc(OC)c3)c3cc(OC)cnc32)nc1", "note": "[Compound 40, 2-(5-methoxy-1-((5-methoxypyridin-2-yl)methyl)-2-methyl-1H-pyrrolo[2,3-b]pyridin-3-yl)-N-(2-methoxypyridin-4-yl)-2-oxoacetamide]", "values": [
      {"measurement": "inhibition at 600 s, 1 µM", "setting": "[1]", "value": "< 25", "unit": "%"},
      {"measurement": "inhibition at 600 s, 10 µM", "setting": "[1]", "value": "< 25", "unit": "%"},
      {"measurement": "IC50", "setting": "[2]", "value": "< 100", "unit": "nM"}
    ]},
    {"smiles": "COc1cc(NC(=O)C(=O)c2c(C)n(Cc3ccc(Cl)cc3)c3ccc(C(F)(F)F)cc23)ccn1", "note": "[Compound 21, 2-(1-(4-chlorobenzyl)-2-methyl-5-(trifluoromethyl)-1H-indol-3-yl)-N-(2-methoxypyridin-4-yl)-2-oxoacetamide]", "values": [
      {"measurement": "inhibition at 600 s, 1 µM", "setting": "[1]", "value": "< 25", "unit": "%"},
      {"measurement": "inhibition at 600 s, 10 µM", "setting": "[1]", "value": "25 to 50", "unit": "%"},
      {"measurement": "IC50", "setting": "[2]", "value": "< 100", "unit": "nM"}
    ]},
    {"smiles": "COc1cc(NC(=O)C(=O)c2c(C)n(Cc3ccc(Cl)cc3)c3ccc(C#N)cc23)ccn1", "note": "[Compound 15, 2-(1-(4-chlorobenzyl)-5-cyano-2-methyl-1H-indol-3-yl)-N-(2-methoxypyridin-4-yl)-2-oxoacetamide]", "values": [
      {"measurement": "inhibition at 600 s, 1 µM", "setting": "[1]", "value": "< 25", "unit": "%"},
      {"measurement": "inhibition at 600 s, 10 µM", "setting": "[1]", "value": "50 to 75", "unit": "%"},
      {"measurement": "IC50", "setting": "[2]", "value": "< 100", "unit": "nM"}
    ]},
    {"smiles": "COc1ccc2c(c1)c(C(=O)C(=O)Nc1cc(OC)ncc1F)c(C)n2Cc1ccc(Cl)cc1", "note": "[Compound 54, 2-(1-(4-chlorobenzyl)-5-methoxy-2-methyl-1H-indol-3-yl)-N-(5-fluoro-2-methoxypyridin-4-yl)-2-oxoacetamide]", "values": [
      {"measurement": "inhibition at 600 s, 1 µM", "setting": "[1]", "value": "< 25", "unit": "%"},
      {"measurement": "inhibition at 600 s, 10 µM", "setting": "[1]", "value": "< 25", "unit": "%"},
      {"measurement": "IC50", "setting": "[2]", "value": "< 100", "unit": "nM"}
    ]},
    {"smiles": "COc1cc(NC(=O)C(=O)c2c(C)n(Cc3ccc(Cl)cc3)c3ccc(Br)cc23)ccn1", "note": "[Compound 18, 2-(5-bromo-1-(4-chlorobenzyl)-2-methyl-1H-indol-3-yl)-N-(2-methoxypyridin-4-yl)-2-oxoacetamide]", "values": [
      {"measurement": "inhibition at 600 s, 1 µM", "setting": "[1]", "value": "< 25", "unit": "%"},
      {"measurement": "inhibition at 600 s, 10 µM", "setting": "[1]", "value": "< 25", "unit": "%"},
      {"measurement": "IC50", "setting": "[2]", "value": "< 100", "unit": "nM"}
    ]},
    {"smiles": "COc1cc(NC(=O)C(=O)c2c(C)n(Cc3ccc(Cl)cc3)c3ccc(N(C)C)cc23)ccn1", "note": "[Compound 17, 2-(1-(4-chlorobenzyl)-5-(dimethylamino)-2-methyl-1H-indol-3-yl)-N-(2-methoxypyridin-4-yl)-2-oxoacetamide]", "values": [
      {"measurement": "inhibition at 600 s, 1 µM", "setting": "[1]", "value": "< 25", "unit": "%"},
      {"measurement": "inhibition at 600 s, 10 µM", "setting": "[1]", "value": "< 25", "unit": "%"},
      {"measurement": "IC50", "setting": "[2]", "value": "< 100", "unit": "nM"}
    ]},
    {"smiles": "COc1cc(NC(=O)C(=O)c2c(C)n(Cc3ccc(Cl)cc3)c3ccncc23)ccn1", "note": "[Compound 37, 2-(1-(4-chlorobenzyl)-2-methyl-1H-pyrrolo[3,2-c]pyridin-3-yl)-N-(2-methoxypyridin-4-yl)-2-oxoacetamide]", "values": [
      {"measurement": "inhibition at 600 s, 1 µM", "setting": "[1]", "value": "25 to 50", "unit": "%"},
      {"measurement": "inhibition at 600 s, 10 µM", "setting": "[1]", "value": "50 to 75", "unit": "%"},
      {"measurement": "IC50", "setting": "[2]", "value": "< 100", "unit": "nM"}
    ]},
    {"smiles": "COc1cc(NC(=O)C(=O)c2c(C)n(Cc3ncc(Cl)cc3Cl)c3ccc(C)cc23)ccn1", "note": "[Compound 30, 2-(1-((3,5-dichloropyridin-2-yl)methyl)-2,5-dimethyl-1H-indol-3-yl)-N-(2-methoxypyridin-4-yl)-2-oxoacetamide]", "values": [
      {"measurement": "inhibition at 600 s, 1 µM", "setting": "[1]", "value": "< 25", "unit": "%"},
      {"measurement": "inhibition at 600 s, 10 µM", "setting": "[1]", "value": "50 to 75", "unit": "%"},
      {"measurement": "IC50", "setting": "[2]", "value": "< 100", "unit": "nM"}
    ]}
  ]
}
